# Source: US8426342B2, “Method for weed control in lawn” (priority 2008, dated 2013)
# What was measured:
# [1] = test system: Poa annua; test: Effectivity testing against weed plants ex. 5.1, sprayable formulation on dormant Bermuda grass turf, Abbott %; format: in vivo
# Excerpt: (§1) Each plot was divided by different pre-treatments 1 week before application of the trial treatments: • A) Pre-treatment with glyphosate-isopropylammonium allowing to evaluate in this section the pre-emergence effect against weeds. • B) No pre-treatment, present winter annual weeds are received a post-emergence application.
# (§2) 2005, applied on dormant turf in winter
# (§3) Effectivity was rated in percent (%) herbicidal effect compared with untreated control according to the method of Abbott according to the formula [(X−Y)/X]100 where X is the absolute level/scoring of the control plants, Y is the level/scoring of the treated plants. 100% efficacy means full control; 0% efficacy means no control of the weed; all ratings above 80% are usually acceptable.
# [2] = test system: Dagitaria sanguinales; test: Effectivity testing against weed plants ex. 5.1, Abbott %; format: in vivo, Digitaria sanguinales
# Excerpt: as §1, §2, §3
smiles,measurement,setting,value
"Cc1ccc2c(c1)[C@H](Nc1nc(N)nc([C@@H](C)F)n1)[C@@H](C)C2 (stereo in doubt) [(A21)/(A22), indaziflam]","Herbicidal effect (%) on Poa annua, Post-emergence application without pre-treatment","[1]; 25 g a.i./ha, 123 DAT",27%
same,"Herbicidal effect (%) on Poa annua, Pre-emergence application after pre-treatment","[1]; 25 g a.i./ha, 123 DAT",96%
same,"Herbicidal effect (%) on Poa annua, Post-emergence application without pre-treatment","[1]; 25 g a.i./ha, 157 DAT",77%
same,"Herbicidal effect (%) on Poa annua, Pre-emergence application after pre-treatment","[1]; 25 g a.i./ha, 157 DAT",92%
same,"Herbicidal effect (%) on Poa annua, Post-emergence application without pre-treatment","[1]; 25 g a.i./ha, 187 DAT",98%
same,"Herbicidal effect (%) on Poa annua, Pre-emergence application after pre-treatment","[1]; 25 g a.i./ha, 187 DAT",96%
same,"Herbicidal effect (%) on Poa annua, Post-emergence application without pre-treatment","[1]; 50 g a.i./ha, 123 DAT",77%
same,"Herbicidal effect (%) on Poa annua, Pre-emergence application after pre-treatment","[1]; 50 g a.i./ha, 123 DAT",98%
same,"Herbicidal effect (%) on Poa annua, Post-emergence application without pre-treatment","[1]; 50 g a.i./ha, 157 DAT",95%
same,"Herbicidal effect (%) on Poa annua, Pre-emergence application after pre-treatment","[1]; 50 g a.i./ha, 157 DAT",100%
same,"Herbicidal effect (%) on Poa annua, Post-emergence application without pre-treatment","[1]; 50 g a.i./ha, 187 DAT",100%
same,"Herbicidal effect (%) on Poa annua, Pre-emergence application after pre-treatment","[1]; 50 g a.i./ha, 187 DAT",100%
same,"Herbicidal effect (%) on Poa annua, Post-emergence application without pre-treatment","[1]; 75 g a.i./ha, 123 DAT",98%
same,"Herbicidal effect (%) on Poa annua, Pre-emergence application after pre-treatment","[1]; 75 g a.i./ha, 123 DAT",100%
same,"Herbicidal effect (%) on Poa annua, Post-emergence application without pre-treatment","[1]; 75 g a.i./ha, 157 DAT",100%
same,"Herbicidal effect (%) on Poa annua, Pre-emergence application after pre-treatment","[1]; 75 g a.i./ha, 157 DAT",100%
same,"Herbicidal effect (%) on Poa annua, Post-emergence application without pre-treatment","[1]; 75 g a.i./ha, 187 DAT",100%
same,"Herbicidal effect (%) on Poa annua, Pre-emergence application after pre-treatment","[1]; 75 g a.i./ha, 187 DAT",100%
same,"Herbicidal effect (%) on Dagitaria sanguinales, Pre-emergence application after pre-treatment","[2]; 25 g a.i./ha, 187 DAT",100%
same,"Herbicidal effect (%) on Dagitaria sanguinales, Pre-emergence application after pre-treatment","[2]; 25 g a.i./ha, 207 DAT",100%
same,"Herbicidal effect (%) on Dagitaria sanguinales, Pre-emergence application after pre-treatment","[2]; 25 g a.i./ha, 234 DAT",97%
same,"Herbicidal effect (%) on Dagitaria sanguinales, Pre-emergence application after pre-treatment","[2]; 25 g a.i./ha, 259 DAT",99%
same,"Herbicidal effect (%) on Dagitaria sanguinales, Pre-emergence application after pre-treatment","[2]; 50 g a.i./ha, 187 DAT",100%
same,"Herbicidal effect (%) on Dagitaria sanguinales, Pre-emergence application after pre-treatment","[2]; 50 g a.i./ha, 207 DAT",100%
same,"Herbicidal effect (%) on Dagitaria sanguinales, Pre-emergence application after pre-treatment","[2]; 50 g a.i./ha, 234 DAT",100%
same,"Herbicidal effect (%) on Dagitaria sanguinales, Pre-emergence application after pre-treatment","[2]; 50 g a.i./ha, 259 DAT",100%
same,"Herbicidal effect (%) on Dagitaria sanguinales, Pre-emergence application after pre-treatment","[2]; 75 g a.i./ha, 187 DAT",100%
same,"Herbicidal effect (%) on Dagitaria sanguinales, Pre-emergence application after pre-treatment","[2]; 75 g a.i./ha, 207 DAT",100%
same,"Herbicidal effect (%) on Dagitaria sanguinales, Pre-emergence application after pre-treatment","[2]; 75 g a.i./ha, 234 DAT",100%
same,"Herbicidal effect (%) on Dagitaria sanguinales, Pre-emergence application after pre-treatment","[2]; 75 g a.i./ha, 259 DAT",100%
